From US11999727B2 (Tango Therapeutics, Inc., priority 2020, dated 2024)
Like-named read-outs stand apart in the source and are kept apart here.

Key:
PRMT5 [1] = molecular target: T1, PRMT5 (Homo sapiens, UniProt O14744); assay: PRMT5 biochemical IC50 assay with SAM as cofactor; conditions: PRMT5, SAM as cofactor; read-out: SAM IC50
T1 construct: purchased Viva (custom protein)

PRMT5 [2] = molecular target: T1, PRMT5; assay: PRMT5 biochemical IC50 assay with no cofactor; conditions: PRMT5, no cofactor; read-out: No Cofactor/rel IC50
Description: Table 1 indicates IC50 values (μM) against PRMT5 for exemplary compounds in the presence of SAM as cofactor, with no cofactor, and with MTA as cofactor, respectively (columns 4-6). […] Ki values can be calculated from the IC50 values as described in the Examples section. As detailed in the Examples section, for the assay performed in the presence of SAM, IC50=Ki×1.5 (Ki=IC50/1.5).

PRMT5 [3] = molecular target: T1, PRMT5; assay: PRMT5 biochemical IC50 assay with MTA as cofactor; conditions: PRMT5, MTA as cofactor; read-out: MTA IC50
[4] = test system: HAP1 MTAP-intact cell line; assay: SDMA in-cell western assay, HAP1 MTAP-intact; assay type: cell-based; conditions: Homo sapiens
How it was run: (§1)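 Compounds were tested in HAP1 cells differing only in MTAP status (endogenous expression versus null). Cellular SDMA levels were then measured by in-cell western, giving an IC50 in each background.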

[5] = test system: HAP1 MTAP-deleted cell line; assay: SDMA in-cell western assay, HAP1 MTAP-deleted; assay type: cell-based; conditions: for IC50: Homo sapiens; for MTAP intact/deleted ratio: IC50 ratio HAP1 MTAP-intact vs HAP1 MTAP-deleted, SDMA in-cell western
How it was run: as §1

[6] = test system: HAP1 MTAP-deleted cell line; assay: Viability assay, MTAP-deleted cell line; assay type: cell-based; conditions: Homo sapiens
Description: Table 1 additionally indicates IC50 values in a viability assay for the MTAP-deleted cell line (column 10), indicating the effect of treatment with compound on cell survival.

[7] = HAP1, SDMA in-cell western, HAP1 MTAP-intact, read-out: MTAP HAP1 intact IC50
[8] = HAP1, SDMA in-cell western, HAP1 MTAP-deleted, read-out: HAP1 MTAP deleted IC50
[9] = HAP1, viability assay, MTAP-deleted cell line, read-out: HAP1 MTAP deleted viability

T1 sequence (O14744 whole entry): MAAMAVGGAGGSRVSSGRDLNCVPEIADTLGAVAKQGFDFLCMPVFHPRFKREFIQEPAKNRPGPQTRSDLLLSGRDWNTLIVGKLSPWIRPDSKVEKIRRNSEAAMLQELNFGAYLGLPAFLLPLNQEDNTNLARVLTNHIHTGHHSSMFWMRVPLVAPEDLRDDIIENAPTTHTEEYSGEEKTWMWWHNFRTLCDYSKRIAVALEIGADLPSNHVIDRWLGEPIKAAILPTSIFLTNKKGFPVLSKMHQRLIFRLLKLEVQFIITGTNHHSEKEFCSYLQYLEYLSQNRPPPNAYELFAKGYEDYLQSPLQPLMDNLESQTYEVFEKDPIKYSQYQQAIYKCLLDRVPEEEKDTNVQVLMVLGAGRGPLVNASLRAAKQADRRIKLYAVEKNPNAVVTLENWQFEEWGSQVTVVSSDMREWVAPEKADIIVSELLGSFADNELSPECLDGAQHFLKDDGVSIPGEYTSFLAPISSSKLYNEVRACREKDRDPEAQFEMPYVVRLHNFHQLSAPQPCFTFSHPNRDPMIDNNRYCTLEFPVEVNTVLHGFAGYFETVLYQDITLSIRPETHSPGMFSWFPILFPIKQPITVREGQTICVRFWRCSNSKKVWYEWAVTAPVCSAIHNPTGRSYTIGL
T1 sequence (Q9BQA1 whole entry partner): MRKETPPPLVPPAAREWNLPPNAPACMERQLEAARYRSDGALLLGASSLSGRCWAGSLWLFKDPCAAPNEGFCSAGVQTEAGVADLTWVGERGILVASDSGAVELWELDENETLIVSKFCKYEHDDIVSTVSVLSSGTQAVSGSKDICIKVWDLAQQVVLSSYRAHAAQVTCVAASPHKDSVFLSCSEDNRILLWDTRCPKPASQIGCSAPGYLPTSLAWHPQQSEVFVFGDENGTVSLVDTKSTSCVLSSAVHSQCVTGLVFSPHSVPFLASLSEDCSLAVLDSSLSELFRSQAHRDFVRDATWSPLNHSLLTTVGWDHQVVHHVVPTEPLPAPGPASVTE

IC50 (PRMT5 [1]) | IC50 (PRMT5 [2]) | IC50 (PRMT5 [3]) | IC50 [4, 7] | IC50 [5, 8] | Compound | MTAP intact/deleted ratio [5] | IC50 [6, 9] | IC50 ([4]; HAP1, read-out: MTAP HAP1 intact IC50) | IC50 ([5]; HAP1, read-out: HAP1 MTAP deleted IC50) | IC50 ([6]; HAP1, read-out: HAP1 MTAP deleted viability)
< 50 nM | < 50 nM | < 50 nM | 100 to 1000 nM | < 100 nM | Cc1cc(NC(=O)C(=O)N2C[C@@H](C)CC[C@@H]2c2ccc3sc([C@@H]4CCN(C)C(C)(C)C4)nc3c2)cnc1C [Compound 1215, N-(5,6-dimethyl-3-pyridyl)-2-oxo-2-[(2R,5S)-5-methyl-2-[2-[(4R)-1,2,2-trimethyl-4-piperidyl]-1,3-benzothiazol-5-yl]-1-piperidyl]acetamide] | A (an IC50 ratio greater than or equal to 10 fold) | < 1000 nM |  |  | 
< 50 nM | < 50 nM | < 50 nM | < 100 nM | < 100 nM | CCc1cc(NC(=O)C(=O)N2C[C@@H](C)CC[C@@H]2c2ccc3sc(C45CCC(CC4)N(C)C5)nc3c2)cnc1N [Compound 1217] | B (an IC50 ratio greater than or equal to 3 fold but lower than 10 fold) | < 1000 nM |  |  | 
50 to 500 nM | < 50 nM | < 50 nM | < 100 nM | < 100 nM | COc1ncc(NC(=O)C(=O)N2C[C@@H](C)CC[C@@H]2c2ccc3sc(C4CCN(C5CC5)CC4)nc3c2)cc1C(N)=O [Compound 1219, 5-(2-((2R,5S)-2-(2-(1-cyclopropylpiperidin-4-yl)benzo[d]thiazol-5-yl)-5-methylpiperidin-1-yl)-2-oxoacetamido)-2-methoxynicotinamide] | A (an IC50 ratio greater than or equal to 10 fold) | < 1000 nM |  |  | 
< 50 nM | < 50 nM | < 50 nM | < 100 nM | < 100 nM | Cc1cc(NC(=O)C(=O)N2C[C@@H](C)CC[C@@H]2c2ccc3sc(C4CCN(C)CC4)cc3c2)cnc1N [Compound 1220, N-(6-amino-5-methyl-3-pyridyl)-2-[(2R,5S)-5-methyl-2-[2-(1-methyl-4-piperidyl)benzothiophen-5-yl]-1-piperidyl]-2-oxo-acetamide] | B (an IC50 ratio greater than or equal to 3 fold but lower than 10 fold) | < 1000 nM |  |  | 
50 to 500 nM | < 50 nM | < 50 nM | < 100 nM | < 100 nM | CCc1cc(NC(=O)C(=O)N2C[C@@H](C)CC[C@@H]2c2ccc3sc(C4CCN(C5COC5)CC4)nc3c2)cnc1N [Compound 1224, N-(6-amino-5-ethylpyridin-3-yl)-2-((2R,53)-5-methyl-2-(2-(1-(oxetan-3-yl)piperidin-4-yl)benzo[d]thiazol-5-yl)piperidin-1-yl)-2-oxoacetamide] | A (an IC50 ratio greater than or equal to 10 fold) | < 1000 nM |  |  | 
50 to 500 nM | < 50 nM | < 50 nM | 100 to 1000 nM | < 100 nM | CCc1cc(NC(=O)C(=O)N2C[C@@H](C)CC[C@@H]2c2cccc(CCN(C)C)c2)cnc1N [Compound 1226, N-(6-amino-5-ethylpyridin-3-yl)-2-((2R,5S)-2-(3-(2-(dimethylamino)ethyl)phenyl)-5-methylpiperidin-1-yl)-2-oxoacetamide] | A (an IC50 ratio greater than or equal to 10 fold) | < 1000 nM |  |  | 

Compound | IC50 (PRMT5 [1]) | IC50 (PRMT5 [2]) | IC50 (PRMT5 [3]) | IC50 [4, 7] | IC50 [5, 8] | MTAP intact/deleted ratio [5] | IC50 [6, 9] | IC50 ([4]; HAP1, read-out: MTAP HAP1 intact IC50) | IC50 ([5]; HAP1, read-out: HAP1 MTAP deleted IC50) | IC50 ([6]; HAP1, read-out: HAP1 MTAP deleted viability)
Cc1cc(NC(=O)C(=O)N2C[C@@H](C)CC[C@@H]2c2ccc(N(C)C3CCN(C)CC3)nc2)cnc1N [Compound 1225, N-(6-Amino-5-methyl-3-pyridyl)-2-[(2R,5S)-5-methyl-2-[6-[methyl-(1-methyl-4-piperidyl)amino]-3-pyridyl]-1-piperidyl]-2-oxo-acetamide] | < 50 nM | < 50 nM | < 50 nM |  |  | A (an IC50 ratio greater than or equal to 10 fold) |  | 100 to 1000 nM | < 100 nM | < 1000 nM
